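All cell lines were grown in 96-well plates and treated with compound for 48 hours. Abbreviation: GI50, concentration required for 50% inhibition of growth. At the TGI there is no net growth.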
Assays:
Assay in all cases: NCI anticancer screen, dose series, 48 h
[1] = system: CCRF-CEM leukemia
[2] = system: EKVX NSCLC
[3] = system: HOP-62 NSCLC
[4] = system: HOP-92 NSCLC
[5] = system: OVCAR-3 ovarian
[6] = system: RXF 393 renal
[7] = system: SNB-75 CNS
[8] = system: UO-31 renal
[9] = system: T-47D breast
[10] = system: LOX IMVI melanoma

SMILES	TGI [1] [µM]	TGI [2] [µM]	TGI [3] [µM]	TGI [4] [µM]	TGI [5] [µM]	TGI [6] [µM]	TGI [7] [µM]	TGI [8] [µM]	TGI [9] [µM]	GI50 [1] [µM]	GI50 [5] [µM]	GI50 [6] [µM]	GI50 [7] [µM]	GI50 [8] [µM]	GI50 [2] [µM]	GI50 [3] [µM]	GI50 [4] [µM]	GI50 [10] [µM]	TGI [10] [µM]	GI50 [9] [µM]
N=c1n(CC(=O)NC23CC4CC(CC(C4)C2)C3)c2ccccc2n1CC(=O)NC12CC3CC(CC(C3)C1)C2	6.23	5.03	3.48	3.06	3.32	3.17	4.12	26												
CCCc1n[nH]c(=O)n1N1C(=O)C=CC1=O	> 100	> 100	> 100		> 100	> 100			> 100											
CCn1c(-c2ccc(OC)cc2)nc2c1C(=O)c1ccccc1C2=O	> 100	> 100	> 100	> 100	> 100	> 100	> 100		> 100											
Fc1ccc2[nH]cc(-c3nc(-c4c[nH]c5ccncc45)cs3)c2c1	4.65				3.3	2.86	2.62	2.61		1.89	1.8	1.48	1.22	1.33						
C=CCNc1nc(O)c(/C=C2\C=Nc3ncccc32)s1		> 100	5.77	6.38	7.29	4.25	2.96	> 100	7.38		2.21	2.07	1.51	3.36	3.4	1.84	0.227	2.73	> 100	2.27
CC(C)(C)c1ccc(O)c(C(c2ccc([N+](=O)[O-])cc2)c2cc(C(C)(C)C)ccc2O)c1	7.53	3.92	3.39	3.7	3.25	3.66	3.9	3.52	8.72											
C[C@@H](NC(=O)[C@@H]1C[C@]1(C)CO)c1cccc2ccccc12	> 100	> 100	> 100	> 100	> 100	> 100	> 100	> 100	> 100											
Clc1ccc2nc3n[nH]c(Cl)c3nc2c1		85.4	> 100		> 100	> 100	> 100	68.2	> 100											
C[N+](C)(C)CCOC(=O)/C=C/c1cnc[nH]1	> 500	> 500	> 500	> 500	> 500	> 500	> 500	> 500											> 500	
CC(=O)OC12CC(C(F)(F)F)(C(F)(F)F)OC1(OC(C)=O)CC(C(F)(F)F)(C(F)(F)F)O2 (stereo not given)	> 100		> 100		> 100	77.7	> 100	13.3	8.56										34.9	
O=C(NC12CC3CC(CC(C3)C1)C2)C(=O)c1c[nH]c2ccc(Br)cc12	> 100	> 100		48.1	38.6	6.39	28.2	> 100											18.4	

— PubChem BioAssay (NCI)
